US20020115669A1 (published 2002)

melting point: 187 to 190 °C (dec.)
Compound: CC(=O)NC[C@H]1CN(c2ccc(/C=C(\Br)c3ccc(C(C)=O)s3)c(F)c2)C(=O)O1
